Source: ChEMBL document CHEMBL4342522 (J Med Chem, 2020)
pIC50, pKi: −log10 of the molar value.

Experiments:
[1] = target: T1, Bromodomain-containing protein 4 (Homo sapiens, UniProt O60885); assay: Inhibition of human N-terminal His6 tagged BRD4 BD2 (352 to 457) residues expressed in Escherichia coli BL21(DE3) cells after 1 hr by TR-FRET assay
[2] = Unbound hepatic clearance in mouse liver microsomes; type: ADME, Microsome
SKM-1 = assay: Antiproliferative activity against human SKM1 cells assessed as reduction in cell viability after 5 days by CellTiter-Glo assay; type: functional, cell-based; settings: SKM-1, 120 h
[3] = Unbound hepatic clearance in rat liver microsomes; type: ADME, Microsome
[4] = Unbound hepatic clearance in human liver microsomes; type: ADME, Microsome
[5] = target: T1, Bromodomain-containing protein 4; assay: biochemical; type: cell-based
Description: Inhibition of human N-terminal His6 tagged BRD4 BD1 (57 to 168) residues expressed in Escherichia coli BL21(DE3) cells after 1 hr by TR-FRET assay

[6] = Permeability in dog MDCK cells by PAMPA; type: ADME, cell-based, Canis lupus familiaris; settings: read-out: permeability
NCI-H1299 = assay: Antiproliferative activity against human H1299 cells assessed as reduction in cell viability after 5 days by CellTiter-Glo assay; type: functional, cell-based; settings: NCI-H1299, 120 h

pKi [1]	CL free [2] [L/h/kg]	pIC50 (SKM-1)	CL free [3] [L/h/kg]	CL free [4] [L/h/kg]	pKi [5]	Papp [6] [nm/s]	pIC50 (NCI-H1299)	Structure (SMILES)
8.89	55	7.85	28	10	7.10	61.2	6.09	CCNC(=O)c1cc2c(-c3cc(S(=O)(=O)CC)ccc3Oc3c(C)cc(F)cc3C)cn(C)c(=O)c2[nH]1
9.30	120	8.46	40	5	7.12	19.6	6.14	CCNC(=O)c1cc2c(-c3cc(NC(C)=O)ccc3Oc3c(C)cccc3C)cn(C)c(=O)c2[nH]1
9.30	72	8.48	72	12	8.19	138	6.47	CCNC(=O)c1cc2c(-c3cc(S(=O)(=O)CC)ccc3Oc3ccccc3Cl)cn(C)c(=O)c2[nH]1
8.92	< 7.2	8.00	< 4.1	4.6	8.07	24	6.22	Cn1cc(-c2cc(S(C)(=O)=O)ccc2Oc2ccc(F)cc2F)c2cc(C(N)=O)[nH]c2c1=O
9.00	33	7.89	10	24	6.85	5.5	5.92	CNC(=O)c1cc2c(-c3cc(C(C)(C)O)ccc3Oc3c(C)cc(F)cc3C)cn(C)c(=O)c2[nH]1
9.10	79	8.77	880	11	7.77	2.2	6.52	CCNC(=O)c1cc2c(-c3cc(NS(=O)(=O)CC)ccc3Oc3c(C)cccc3C)cn(C)c(=O)c2[nH]1
8.82	940	7.59	380	350	6.66	15.6	5.66	CCNC(=O)c1cc2c(-c3cc(C4(O)CCC4)ccc3Oc3c(C)cc(F)cc3C)cn(C)c(=O)c2[nH]1
8.70	210	7.18	84	67	6.11	7.6	5.54	Cc1cc(F)cc(C)c1Oc1ccc(C(C)(C)O)cc1-c1cn(C)c(=O)c2[nH]c(C(=O)NC3(C)CC3(F)F)cc12 (stereo unspecified)
9.10	120	6.96	95	47	7.09	14.6	6.15	CCNC(=O)c1cc2c(-c3cc(S(=O)(=O)CC)ccc3Oc3c(C)cc(Cl)cc3C)cn(C)c(=O)c2[nH]1
8.68	54	7.62	12	4.5	6.80	152	6.06	CCNC(=O)c1cc2c(-c3cc(S(=O)(=O)CC)ccc3Oc3c(C)cccc3C(F)F)cn(C)c(=O)c2[nH]1
7.60	2300	6.82	1300	320	5.68	38.1	5.38	CCNC(=O)c1cc2c(-c3ccccc3Cc3c(C)cccc3C)cn(C)c(=O)c2[nH]1
9.05	31	7.47	14	8.4	6.77	35	5.41	CCNC(=O)c1cc2c(-c3cc(S(=O)(=O)CC)ccc3-c3cccc4cc[nH]c34)cn(C)c(=O)c2[nH]1
